Earlier results in paper PMC3791449, “Mechanism of amyloid β−protein dimerization determined using single−molecule AFM force spectroscopy” (Scientific Reports, 2013).

Test system: Aβ(13−23) dimer
Settings: antiparallel β−sheet structures; cited from earlier work

Aβ(13−23): Aβ(13−23) peptide of published MD simulations (HHQKLVFFAED; Amyloid-beta protein 42; UniProt P05067 684-694, looked up, fragment)
dimer stability by MD simulation: high dimer stability
